As a reminder, the TGI is the concentration giving total growth inhibition. Low readings indicate greater sensitivity of the cells, high ones lower sensitivity of the cells. Usually GI50 stands for the concentration giving 50% growth inhibition.

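Following 48 hours of exposure in 96-well plates, responses at five concentrations were used to interpolate endpoints linearly. GI50: concentration for 50% inhibition of growth. TGI denotes the concentration required for complete inhibition of growth.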 Where only a bound is given, the exact number is not on record here.

In PubChem BioAssay (NCI) one finds TGI and GI50 data, which are given here for eleven molecules.

Holding throughout (experiment): DTP human tumour cell line panel, 48 h
In assay [1] the test system is SNB-75 CNS.
For assay [2], the system named is OVCAR-5 ovarian.
Assay [3] relates to HS 578T breast.
In assay [4] the test system is SF-539 CNS.
The test system of assay [5] is M14 melanoma.
For assay [6], the system named is SW-620 colon.
Assay [7] deals with OVCAR-3 ovarian.
Assay [8] relates to 786-0 renal.
Assay [9] concerns HCT-116 colon.
Assay [10] deals with HCC-2998 colon.

Take `Cn1c(=O)c2[nH]c(SCCN3CCOCC3)nc2n(C)c1=S`: the TGI in assay [1], in assay [2], in assay [3], in [4], in [5] and in assay [6] was more than 100 µM each time. Also, the TGI in assay [7], in [8] and in assay [9] was more than 100 µM throughout.

For `C[Si](C)(c1ccc(C(=O)O)cc1)c1ccc(C(=O)O)cc1`, the concentration for total growth inhibition (TGI) in [1], in assay [2], in assay [3], in assay [4], in [5] and in assay [6] was more than 100 µM throughout. The TGI in [7], in assay [8] and in assay [9] was more than 100 µM throughout.

Take `CCc1cccc(C)c1N1C(=O)C(=O)C(c2nc3ccccc3o2)C(=O)C1=O`: the TGI in [1], in assay [2], in assay [4], in [10], in assay [5] and in assay [6] was more than 100 µM throughout. The TGI in assay [7], in assay [8] and in [9] was more than 100 µM each time.

Regarding `Cc1c2c(cc3c1C(=O)C(=O)C1=C3OC[C@@H]1C)C(C)(C)CCC2`, the TGI in [1] was 41.9 µM; in assay [2] it was 40.2 µM; in [4] it was 29.8 µM; in [10], 42.4 µM; in assay [5], 26.9 µM; in assay [6], 28.4 µM. For the same molecule, the values for the TGI in assay [7], in assay [8] and in assay [9] were 34.9 µM, 75.9 µM and 26.7 µM, respectively.

On to `O=[N+]([O-])c1cccc(-c2nc(-c3ccccc3)c(-c3ccccc3)[nH]2)c1`, for which the TGI in assay [2], in [3], in assay [4], in assay [10], in assay [5] and in assay [6] was more than 100 µM in each case. Also, the total growth inhibition concentration (TGI) in assay [7], in assay [8] and in assay [9] was more than 100 µM each time.

Turning to `[O-]c1ccccc1C=Nc1ccc2c(c1)CCC2.[O-]c1ccccc1C=Nc1ccc2c(c1)CCC2.[O]=[U+2]=[O]`, the GI50 was 82.7 µM in assay [1]; more than 100 µM in assay [2]; 14.2 µM in [4]; 57.1 µM in [10]; more than 100 µM in assay [5]; more than 100 µM in assay [6]. For the same molecule, the values for the GI50 in [7], in assay [8] and in [9] were more than 100 µM, 40.3 µM and 13.5 µM, respectively. The TGI in assay [1], in assay [2], in assay [4], in assay [10], in assay [5] and in [6] was more than 100 µM each time. Besides, the TGI in assay [7], in assay [8] and in assay [9] was more than 100 µM each time.

Consider `COc1ccc(NC(=O)/C=C(C)/C=C/C=C(C)/C=C/C2=C(C)CCCC2(C)C)cc1`, for which the GI50 is 4.5 µM in [1]; 15.9 µM in assay [2]; 9.42 µM in assay [3]; 2.59 µM in assay [4]; 17.7 µM in [10]; 2.98 µM in assay [6]. The GI50 in [7] was 2.64 µM; in assay [8], 14.4 µM; in assay [9], 2.43 µM. In addition, the TGI in assay [1] is 18.5 µM; in [2], 30.7 µM; in [3], 39.8 µM; in assay [4], 6.15 µM; in assay [10] it was 33.5 µM; in assay [6], 8.43 µM. Also, the TGI in assay [7] is 5.9 µM; in assay [8], 28.7 µM; in assay [9] it was 6.99 µM.

Regarding `O=c1nc(-c2ccccc2)cc(CC(O)c2ccc(Cl)c(Cl)c2)[nH]1` (stereo not given), the TGI in [1] is more than 100 µM; in assay [2], 82 µM; in assay [4], more than 100 µM; in assay [10], more than 100 µM; in assay [5], more than 100 µM; in assay [6], more than 100 µM. Also, the TGI in [7], in assay [8] and in [9] was more than 100 µM in each case.

As for `COc1ccc(Nc2nc3ccccc3c3occc23)cc1`, the GI50 in assay [2] is 7.95 µM; in [3], 7.12 µM; in [4] it was 8.89 µM; in assay [10], 5 µM; in assay [5], 9.72 µM; in [6] it was 4.06 µM. In addition, the GI50 in assay [7] was 7.85 µM; in assay [8] it was 5.02 µM; in assay [9] it was 6.9 µM. Further, the TGI in assay [2] is 16.6 µM; in [3] it was 16.3 µM; in assay [4] it was 18.9 µM; in [10], 11.1 µM; in [5] it was 18.9 µM; in [6] it was 11 µM. Also, the TGI in assay [7] is more than 50 µM; in assay [8] it was 10.8 µM; in [9], 13.4 µM.

For `O=C(O)/C=C\C(=O)Nc1ccccn1`, the TGI in assay [1], in assay [2], in assay [3], in assay [4], in [5] and in assay [6] was more than 100 µM throughout. Besides, the TGI in assay [7], in assay [8] and in assay [9] was more than 100 µM each time.

As to `CN(Cc1ccc(C(F)(F)F)cc1)CC(O)C(=O)Nc1ccc(Cl)cc1` (stereo not given), the GI50 in [1] is 1.31 µM; in [2], 1.43 µM; in assay [4] it was 1.73 µM; in assay [10], 1.66 µM; in assay [5], 1.52 µM; in assay [6] it was 1.54 µM. The GI50 in assay [7] was 1.55 µM; in [8], 1.44 µM; in assay [9] it was 1.12 µM. For the same molecule, the TGI turned out to be 2.62 µM in [1]; 2.86 µM in assay [2]; 3.24 µM in [4]; 3.08 µM in [10]; 3.05 µM in [5]; 3.1 µM in assay [6]. The TGI in [7] came out at 3.03 µM; in assay [8], 2.84 µM; in [9], 2.6 µM.
